From ChEMBL document CHEMBL1201862, “PubChem BioAssay data set” (2004) come the findings set out here.

Holding throughout (experiment): NCI tumour cell line growth inhibition, 48 h
Experiment [1] relates to A549.
Experiment [2] relates to ACHN.
Experiment [3] concerns HCC 2998.
Experiment [4] relates to HT-29.
Experiment [5] deals with KM12.
In experiment [6] the test system is M14.
Experiment [7] has as its system MDA-MB-231.
Experiment [8] relates to MDA-MB-435.
Experiment [9] concerns MOLT-4.
For experiment [10], the system named is NCI-H226.
Experiment [11] has as its system NCI/ADR-RES.
The test system of experiment [12] is OVCAR-3.
Experiment [13] deals with OVCAR-5.
Experiment [14] relates to RXF 393.
Experiment [15] has as its system SF-539.
Experiment [16] deals with SK-MEL-2.
For experiment [17], the system named is SK-MEL-5.
Experiment [18] deals with SNB-75.
The test system of experiment [19] is SW-620.
The test system of experiment [20] is U-251.

The structures appear in SMILES notation.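 Cells were grown in 96-well plates and exposed to each compound for 48 hours at five concentrations; endpoints were interpolated linearly between bracketing concentrations, or set to the highest concentration if not reached. GI50 is the concentration that inhibits growth by half.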 Activity calls are given as the source filed them. Rule as the data show it: active = GI50 up to about 1.1 µM and inactive = higher.

As to `CC1C(=O)C(C)C(c2ccccc2)N(N=O)C1c1ccccc1` (stereo not given), the GI50 in [1] was 207 µM (inactive); in experiment [2] it was 143 µM (inactive); in [3], > 100 µM (inactive); in experiment [4], > 570 µM (inactive); in experiment [5], > 439 µM (inactive); in [6], 283 µM (inactive). The GI50 in experiment [7] is 85.3 µM (inactive); in experiment [8] it was 157 µM (inactive); in experiment [9], > 695 µM (inactive); in experiment [10] it was > 69.5 µM (inactive); in experiment [11], 179 µM (inactive); in [12], 197 µM (inactive). In addition, the GI50 in experiment [13] is > 527 µM (inactive); in experiment [14], 36.9 µM (inactive); in experiment [15], 86.5 µM (inactive); in experiment [16] it was 224 µM (inactive); in [17], > 410 µM (inactive); in [18], 34 µM (inactive). Further, the GI50 in experiment [19] was > 100 µM (inactive); in [20], 60.1 µM (inactive).
For `CC1(C)CCC[C@@]2(C)C1C(=O)[C@@H]1O[C@]1(C)[C@@H]2CO` (stereo not given in full), the GI50 in experiment [1] is 19.6 µM (inactive); in experiment [2], 40.3 µM (inactive); in experiment [3], 20.4 µM (inactive); in [4], 37.9 µM (inactive); in experiment [5] it was 29.4 µM (inactive); in experiment [6], 24.4 µM (inactive). Besides, the GI50 in [7] is 49 µM (inactive); in experiment [8], 21 µM (inactive); in experiment [9], 39 µM (inactive); in [10] it was 33.3 µM (inactive); in [11], 48.8 µM (inactive); in [12] it was 18.4 µM (inactive). Also, the GI50 in experiment [13] was > 100 µM (inactive); in [14], 25.6 µM (inactive); in [15], 37.8 µM (inactive); in experiment [16] it was 28.1 µM (inactive); in experiment [17], 46.2 µM (inactive); in [18], 24.5 µM (inactive). Besides, the results for the GI50 in [19] and in [20] were 24.7 µM (inactive) and 14.8 µM (inactive), respectively.
`NC(=O)c1ccc(NCC2=CC(=O)C=CC2=O)cc1`: the GI50 in [1] was > 100 µM (inactive); in experiment [2] it was 17.7 µM (inactive); in [3], 35.8 µM (inactive); in [4], 22.1 µM (inactive); in experiment [5] it was > 100 µM (inactive); in [6] it was 16.9 µM (inactive). The GI50 in experiment [7] was 20.1 µM (inactive); in experiment [8], 17.2 µM (inactive); in [9] it was 18.8 µM (inactive); in [10], > 100 µM (inactive); in [11], 25.6 µM (inactive); in [12] it was 16.3 µM (inactive). The GI50 in experiment [13] was 23 µM (inactive); in [14], 18.7 µM (inactive); in experiment [15] it was 17.1 µM (inactive); in [16], 20.4 µM (inactive); in experiment [17] it was 15.5 µM (inactive); in [18], 21 µM (inactive). In addition, the GI50 in experiment [19] is 21.4 µM (inactive); in experiment [20], 22 µM (inactive).
As to `CCOC(=O)c1c(C)n(Cc2ccccc2)c(=O)c2ccccc2c(=O)c2c(=O)ccc(=O)c1=2`, the GI50 in experiment [1] was > 100 µM (inactive); in experiment [2] it was 30.7 µM (inactive); in experiment [3], 38.5 µM (inactive); in [4] it was 42.8 µM (inactive); in experiment [5] it was > 100 µM (inactive); in experiment [6] it was 39.1 µM (inactive). For the same compound, the GI50 in experiment [7] is 65 µM (inactive); in experiment [8] it was > 100 µM (inactive); in [9], 54.7 µM (inactive); in experiment [10] it was > 100 µM (inactive); in [11], 92.7 µM (inactive); in experiment [12] it was 34.1 µM (inactive). Also, the GI50 is > 100 µM (inactive) in [13]; 23.8 µM (inactive) in experiment [14]; 48.2 µM (inactive) in experiment [15]; > 100 µM (inactive) in experiment [16]; > 100 µM (inactive) in experiment [17]; > 100 µM (inactive) in experiment [18]. The values for the GI50 in experiment [19] and in [20] were 33.3 µM (inactive) and > 100 µM (inactive), respectively.
With `CCCc1c(OC)c(=O)c2c(OC)cc(OC)c3c4c(OC)cc(OC)c5c(=O)c(OC)c(CCC)c(c1c23)c54`, the GI50 is 19.4 µM (inactive) in [1]; 15.8 µM (inactive) in experiment [2]; 20.1 µM (inactive) in experiment [3]; 11.4 µM (inactive) in [4]; 14.6 µM (inactive) in experiment [5]; 16.9 µM (inactive) in experiment [6]. Moreover, the GI50 was 4.38 µM (inactive) in [7]; 16 µM (inactive) in [8]; 7.91 µM (inactive) in experiment [9]; 16.2 µM (inactive) in experiment [10]; 21.2 µM (inactive) in experiment [11]; 14.8 µM (inactive) in [12]. The GI50 was 15.2 µM (inactive) in experiment [13]; 20.7 µM (inactive) in [14]; 15.1 µM (inactive) in experiment [15]; 22 µM (inactive) in experiment [16]; 10.7 µM (inactive) in experiment [17]; 7.23 µM (inactive) in experiment [18]. Besides, the GI50 in experiment [19] is 17.3 µM (inactive); in [20], 16 µM (inactive).
As for `CCC1(CC)SCc2nc3ccccc3n21`, the GI50 in [1] was 35.9 µM (inactive); in [2] it was 30.1 µM (inactive); in [3], 94.6 µM (inactive); in [4], 32.3 µM (inactive); in experiment [5] it was 23.9 µM (inactive); in experiment [6], 26.5 µM (inactive). Further, the GI50 in [7] was 29.6 µM (inactive); in experiment [8], 26 µM (inactive); in experiment [9], 22.8 µM (inactive); in [10], 33.4 µM (inactive); in experiment [11], 25.6 µM (inactive); in experiment [12] it was 32.1 µM (inactive). Further, the GI50 in experiment [13] is 45.6 µM (inactive); in experiment [14], 32.2 µM (inactive); in [15], 54.3 µM (inactive); in experiment [16], 27.5 µM (inactive); in experiment [17], 20.9 µM (inactive); in experiment [18], 12.6 µM (inactive). The GI50 in [19] is 58.6 µM (inactive); in [20], 37.2 µM (inactive).
Consider `CC(=O)N(CN1C(=O)CCC1C(=O)O)c1ccccc1` (stereo not given), for which the GI50 in [1] was > 55.1 µM (inactive); in experiment [2], > 56.6 µM (inactive); in experiment [3], > 100 µM (inactive); in experiment [4], > 55 µM (inactive); in experiment [5] it was > 55.3 µM (inactive); in experiment [6], > 54.5 µM (inactive). Besides, the GI50 is > 48.8 µM (inactive) in [7]; > 100 µM (inactive) in experiment [8]; > 54.2 µM (inactive) in [9]; > 52.7 µM (inactive) in [10]; 29.9 µM (inactive) in [11]; > 54.5 µM (inactive) in [12]. Also, the GI50 in experiment [13] was > 55.6 µM (inactive); in experiment [14] it was > 60.3 µM (inactive); in [15], > 50.6 µM (inactive); in experiment [16] it was > 54.7 µM (inactive); in experiment [17], > 58.7 µM (inactive); in experiment [18], > 56.5 µM (inactive). Also, the GI50 in [19] and in [20] was > 100 µM (inactive) throughout.
In the case of `CCc1cccc(C(C)C)c1NC1=C([n+]2ccc(C)cc2)C(=O)c2ccccc2C1=O.[O-][Cl+3]([O-])([O-])[O-]`, the GI50 was 2.37 µM (inactive) in experiment [1]; 0.275 µM (active) in [2]; 3.21 µM (inactive) in [3]; 1.82 µM (inactive) in [4]; 2.77 µM (inactive) in experiment [5]; 0.944 µM (active) in [6]. For the same compound, the GI50 in [7] is 2.21 µM (inactive); in [8] it was 1.7 µM (inactive); in experiment [9], 0.3 µM (active); in experiment [10] it was 1.39 µM (inactive); in experiment [11] it was 4.92 µM (inactive); in [12], 0.647 µM (active). Also, the GI50 is 5.3 µM (inactive) in experiment [13]; 0.575 µM (active) in experiment [14]; 0.895 µM (active) in [15]; 3.87 µM (inactive) in experiment [16]; 1.14 µM (inactive) in experiment [17]; 1.75 µM (inactive) in experiment [18]. Further, the figures for the GI50 in experiment [19] and in [20] were 0.861 µM (active) and 0.887 µM (active), respectively.
For the compound `C=C(C)C(O)C(O)c1c(OC)ccc2ccc(=O)oc12` (stereo not given), the GI50 in experiment [1], in [2], in experiment [3], in experiment [4], in experiment [5] and in experiment [6] was > 100 µM (inactive) throughout. For the same compound, the GI50 in experiment [7], in experiment [8], in experiment [9], in [10], in experiment [11] and in [12] was > 100 µM (inactive) each time. For the same compound, the GI50 in experiment [13], in [14], in [15], in experiment [16], in experiment [17] and in experiment [18] was > 100 µM (inactive) each time. Further, the GI50 in [19] and in [20] was > 100 µM (inactive) each time.
In the case of `N#CC(C#N)=C(N)/C(C#N)=C/c1ccc(O)c(O)c1`, the GI50 is > 100 µM (inactive) in [1]; > 85.7 µM (inactive) in experiment [2]; > 100 µM (inactive) in [3]; > 92.9 µM (inactive) in [4]; 69.5 µM (inactive) in experiment [5]; > 100 µM (inactive) in experiment [6]. Further, the GI50 in experiment [7] is > 100 µM (inactive); in experiment [8] it was 87.1 µM (inactive); in experiment [9], 47.9 µM (inactive); in [10], 46.3 µM (inactive); in experiment [11], 41.5 µM (inactive); in experiment [12], 37.5 µM (inactive). Also, the GI50 in experiment [13] is > 58.3 µM (inactive); in experiment [14], > 100 µM (inactive); in experiment [15], > 100 µM (inactive); in experiment [16], > 100 µM (inactive); in experiment [17] it was 78.9 µM (inactive); in [18] it was 74.8 µM (inactive). Moreover, the GI50 in experiment [19] is 50.2 µM (inactive); in experiment [20] it was > 89.5 µM (inactive).
